Article PMC8765781, “A platform of assays for the discovery of anti-Zika small-molecules with activity in a 3D-bioprinted outer-blood-retina model” (PLoS ONE, 2022)
Read-outs that look alike come from different tables or passages of the source.

Columns and labels:
[1] = system: wild-type ZIKV (Ugandan MR766 strain) in Vero cells; test: ZIKV cytopathic effect (CPE) inhibition qHTS assay, CellTiter-Glo readout; format: cell-based, Zika virus; conditions: for AC50 / IC50: Zika virus; for IC50: read-out: ZIKV-infection (CPE, ZIKV Antiviral Assays), IC50
[2] = system: caspase-3 activity induced by ZIKV in Vero cells; test: cells; format: cell-based; conditions: Zika virus, read-out: Caspase 3 (ZIKV Antiviral Assays), IC50
[3] = system: ZIKV-RLuc (Cambodian strain FSS13025); test: microbe, parasite or virus in culture; format: cell-based, Zika virus; conditions: Zika virus, Vero, 48 h, read-out: Rluc-ZIKV (ZIKV Antiviral Assays), IC50
[4] = system: ZIKV-mCherry (Cambodian strain FSS13025); test: microbe, parasite or virus in culture; format: cell-based, Zika virus; conditions: for AC50: Zika virus, Vero
[5] = system: mCherry-ZIKV in human neuronal progenitor cells; test: microbe, parasite or virus in culture; format: cell-based, Zika virus; conditions: for AC50 / IC50: Zika virus, Neuronal progenitor cell; for IC50: read-out: NPC (ZIKV Antiviral Assays), IC50
[6] = system: DENV (Dengue virus type 2, strain New Guinea C)
in vitro [7] = conditions: African green monkey
in vitro [8] = conditions: human
in vitro [9] = conditions: human; remark: listed apart in the source
[10] = system: ZIKV-mCherry in 3D-oBRB tissue; format: cell-based, Zika virus
Vero cells = conditions: read-out: Cell toxicity counterscreen Vero, CC50
HepG2 cells = conditions: read-out: Cell toxicity counterscreen HepG2, CC50
[11] = system: ZIKV-mCherry in iPSC-derived RPE monoculture; format: cell-based, Zika virus
[12] = Vero, read-out: Log AC50 (M) (converted)
[13] = read-out: Log AC50 (M) (converted)

| Compound | CC-v2 (curve class classification of the dose response curve) [1] | Efficacy [1] | AC50 ([1]; Vero) [M] | IC50 ([1]; Vero, 48 h) [µM] | AC50 [1, 12] [M] | IC50 ([2]; Vero, 48 h) [µM] | IC50 [3] [µM] | CC-v2 (curve class of the dose response curve) [4] | Efficacy (difference between neutral response and maximum compound response) [4] | Max Resp (difference between neutral response and response at highest compound concentration) [4] | Efficacy [5] | Max Resp [5] | IC50 [5] [µM] | DENV active Yes/No [6] | ZIKV active Yes/No (ZIKV) | WHV active Yes/No (WNV (Kern515/WN02)) | YFV active Yes/No (YFV (YFV 17D)) | CC50 (in vitro [8]) [µM] | CC50 at 24 h (in vitro [9]) [µM] | CC-v2 (curve class) [5] | also measured |
| --- | --- | --- | --- | --- | --- | --- | --- | --- | --- | --- | --- | --- | --- | --- | --- | --- | --- | --- | --- | --- | --- |
| CNC(=O)c1cc(Oc2ccc(NC(=O)Nc3cc(C(C)(C)C)nn3-c3ccc4ncccc4c3)c(F)c2)ccn1 [NCGC00263172-09] | -1.2 | -30.756 | 2.91e-05 | 29.1 | 2.91e-05 | 0.01 | 8.27 | -1.2 | -48.4 | -100.305 | -38.32 | -37.38 | 44.7 | No | No | No | No | > 30 | 12.1 |  | AC50 [4]: 9.46e-07 M; AC50 [4, 13]: 9.46e-07 M; AC50 [5]: 4.47e-05 M; AC50 [5, 13]: 4.47e-05 M; CC50 at 48 h (in vitro [7]; Vero cells): > 50 µM |
| CCOC(=O)C1=C(C)NC2=C(C(=O)CC(C)(C)C2)C1c1ccc(-c2ccccc2)cc1 (stereo not drawn) [NCGC00347947-06] | -2.2 | -55.111 | 2.06e-05 | 20.6 | 2.06e-05 | 33.1 | 14.7 | 5 | -39.533 | -99.952 | -93.817 | -85.476 | 35.5 | No | No | No | No | 22.4 | > 30 | -2.1 | AC50 [4]: 8.43e-07 M; AC50 [4, 13]: 8.43e-07 M; Antiviral activity in human NPC [5]: moderate antiviral activity; AC50 [5]: 3.55e-05 M; AC50 [5, 13]: 3.55e-05 M; CC50 at 48 h (in vitro [7]): > 50 µM |
| COC(=O)[C@]12CCCC(C)(C)C1CCc1cc(C(C)C)c(O)c(O)c12 (stereo partly drawn) [NCGC00380281-01] |  |  |  |  |  |  | 25.6 | -1.4 | -82.117 | -100.29 | -22.278 | -14.815 | 31.6 | No | No | No | No | > 30 | > 30 | 4 | AC50 ([1]; Vero, from Hill fit of the response curve, 50% of maximum activity response, 194 cherry-picked compounds, protocol name not given, read-out: AC50): 7.18e-06 M; AC50 ([1]; Vero, potency in log units (Molar) from Hill fit of the response curve, 194 cherry-picked compounds, protocol name not given, read-out: Log AC50 (converted)): 7.18e-06 M; IC50 ([1]; Vero cells, wild-type ZIKV MOI 1, 48 hr, unit inferred): 7.18 µM; Efficacy ([1]; difference between neutral response and maximum compound response): -21.701; IC50 ([2]; ZIKV-infected Vero cells, 48 hr, unit inferred): 12.9 µM; CC50 at 48 h (in vitro [7]): > 50 µM |
| C=C(C)[C@@]12O[C@@H]1[C@@]1(C)C(=CC2=O)CC[C@@H](OC(C)=O)[C@@H]1C [NCGC00380955-01, 3-Acetyl-13-deoxyphomenone] | -1.2 | -61.612 | 4.61e-06 | 4.61 | 4.61e-06 | 1.66 | 2.33 | -1.2 | -59.673 | -100.008 | -81.826 | -89.257 | 12.6 | Yes | Yes | Yes | Yes |  |  | -1.2 | AC50 [4]: 1.5e-06 M; AC50 [4, 13]: 1.5e-06 M; Antiviral activity in human NPC [5]: effectively inhibited ZIKV in NPC cells; AC50 [5]: 1.26e-05 M; AC50 [5, 13]: 1.26e-05 M; Retention of barrier function (TEER) [10]: 30%; Activity against DENV [6]: pan-activity against all four screened flaviviruses; SI value DENV (CC50/EC50) [6]: 14; Selectivity Index DENV (CC50/EC50) [6]: 14; Activity against ZIKV (ZIKV): pan-activity against all four screened flaviviruses; SI value ZIKV (CC50/EC50) (ZIKV): 22; Selectivity Index ZIKV (CC50/EC50) (ZIKV): 22; Activity against WNV (WNV (Kern515/WN02)): pan-activity against all four screened flaviviruses; SI value WHV (CC50/EC50) (WNV (Kern515/WN02)): 9; Selectivity Index WHV (CC50/EC50) (WNV (Kern515/WN02)): 9; Activity against YFV (YFV (YFV 17D)): pan-activity against all four screened flaviviruses; SI value YFV (CC50/EC50) (YFV (YFV 17D)): 5; Selectivity Index YFV (CC50/EC50) (YFV (YFV 17D)): 5; CC50 (in vitro [7]): > 50 µM |
| CC1=C[C@H]2O[C@@H]3[C@H](O)[C@@H](O)[C@](C)([C@@]2(CO)C[C@@H]1O)[C@]31CO1 [NCGC00381381-01, T-2 toxin tetraol] |  |  |  |  |  |  |  |  |  |  |  |  |  |  |  |  |  |  |  |  | CC50 (Vero cells): > 50 µM; CC50 (HepG2 cells): > 30 µM |
| Cc1[nH]c2ccccc2c1C1=C(NCCc2ccc(F)cc2)C(=O)N(C)C1=O [NCGC00386352-05] | -1.2 | -35.912 | 2.06e-05 | 20.6 | 2.06e-05 | 33.1 | 7.37 | -1.4 | -71.769 | -66.876 | -103.895 | -78.246 | 39.8 | Yes | Yes | No | No | > 30 | 17.8 | -2.2 | Antiviral activity in human NPC [5]: effectively inhibited ZIKV in NPC cells; AC50 [5]: 3.98e-05 M; AC50 [5, 13]: 3.98e-05 M; Activity against DENV [6]: active against both DENV and ZIKV; SI value DENV (CC50/EC50) [6]: 24; Selectivity Index DENV (CC50/EC50) [6]: 24; Activity against ZIKV (ZIKV): active against both DENV and ZIKV; SI value ZIKV (CC50/EC50) (ZIKV): 23; Selectivity Index ZIKV (CC50/EC50) (ZIKV): 23; CC50 at 48 h (in vitro [7]; Vero cells): > 50 µM |
| COc1ccc2c(c1)C=C1Cn3c-2c(C2CCCCC2)c2ccc(cc23)C(=O)N[S+](=O)([O-])N(C)CCOCCN(C)C1=O [NCGC00482982-02] | -2.2 | -39.12 | 2.59e-05 | 25.9 | 2.59e-05 | 1.66 | 20.8 | -1.4 | -60.775 | -100.29 | -30.77 | -24.808 | 5.01 | No | No | No | No | > 30 | > 30 | 4 | CC50 at 48 h (in vitro [7]; Vero cells): > 50 µM |
| CO[C@@H]1[C@H](N(C)C(=O)c2ccccc2)C[C@H]2O[C@]1(C)n1c3ccccc3c3c4c(c5c6ccccc6n2c5c31)C(=O)NC4 [midostaurin] |  |  |  |  |  |  |  |  |  |  |  |  |  |  |  |  |  |  |  |  | Retention of barrier function (TEER) [10]: about 40%; Effect on barrier function [11]: exacerbated the barrier function loss |
| O=C(Nc1ccc([N+](=O)[O-])cc1Cl)c1cc(Cl)ccc1O [niclosamide] |  |  |  |  |  |  |  |  |  |  |  |  |  |  |  |  |  |  |  |  | Identified as active in CPE assay validation set [1]: identified; Effect on barrier function [10]: did not recover the barrier function; Effect on barrier function [11]: did not recover the barrier function |
